Laboratory results reported in PubChem BioAssay (NCI).
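48-hour exposure; five concentrations; linearly interpolated endpoints. GI50 = concentration required for 50% inhibition of growth. TGI is the concentration that stops growth completely.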

Tests used:
Experiment in all cases: inhibition of tumour cell growth, NCI panel, 48 h
786-0 renal = tested on: 786-0 renal
HCT-15 colon = tested on: HCT-15 colon
NCI-H522 lung = tested on: NCI-H522 lung
OVCAR-5 ovarian = tested on: OVCAR-5 ovarian
SF-268 CNS = tested on: SF-268 CNS
SK-MEL-2 melanoma = tested on: SK-MEL-2 melanoma
SK-MEL-28 melanoma = tested on: SK-MEL-28 melanoma
SN12C renal = tested on: SN12C renal
SW-620 colon = tested on: SW-620 colon
T-47D breast = tested on: T-47D breast
TK-10 renal = tested on: TK-10 renal
UACC-62 melanoma = tested on: UACC-62 melanoma
SNB-75 CNS = tested on: SNB-75 CNS

O=C(O)CCC(=O)c1ccc2c(c1)C(C(=O)O)CC2 (stereo not drawn) showed a TGI (786-0 renal) of over 100 µM, a TGI (HCT-15 colon) of over 100 µM and a TGI (NCI-H522 lung) of over 100 µM. The TGI (OVCAR-5 ovarian) was over 100 µM, the TGI (SF-268 CNS) was over 100 µM and the TGI (SK-MEL-2 melanoma) was over 100 µM. For the same molecule, the TGI (SK-MEL-28 melanoma) was over 100 µM, the TGI (SN12C renal) was over 100 µM and the TGI (SW-620 colon) was over 100 µM. It also gave a TGI (T-47D breast) of over 100 µM, a TGI (TK-10 renal) of over 100 µM and a TGI (UACC-62 melanoma) of over 100 µM.

For O=C1CC(c2ccccc2)C2(C(=O)NC(=S)NC2=O)C(c2ccccc2)C1 (stereo not drawn), the TGI (786-0 renal) was over 75 µM, the TGI (HCT-15 colon) was over 75 µM and the TGI (NCI-H522 lung) was over 75 µM. It also gave a TGI (OVCAR-5 ovarian) of over 75 µM, a TGI (SF-268 CNS) of over 75 µM and a TGI (SK-MEL-2 melanoma) of over 75 µM. It also gave a TGI (SK-MEL-28 melanoma) of over 75 µM, a TGI (SN12C renal) of over 75 µM and a TGI (SNB-75 CNS) of over 75 µM. It also gave a TGI (SW-620 colon) of over 75 µM, a TGI (T-47D breast) of over 75 µM and a TGI (TK-10 renal) of over 75 µM. For the same molecule, the TGI (UACC-62 melanoma) was over 75 µM.

In the case of O=C(O)Cc1ccc(Nc2nc3cc(C(F)(F)F)ccc3nc2C(=O)O)cc1, the TGI (786-0 renal) is reported as over 100 µM, the TGI (HCT-15 colon) is reported as over 100 µM and the TGI (NCI-H522 lung) is reported as over 100 µM. The TGI (OVCAR-5 ovarian) was over 100 µM, the TGI (SF-268 CNS) was over 100 µM and the TGI (SK-MEL-2 melanoma) was over 100 µM. It also gave a TGI (SK-MEL-28 melanoma) of over 100 µM, a TGI (SN12C renal) of over 100 µM and a TGI (SNB-75 CNS) of over 100 µM. The TGI (SW-620 colon) was over 100 µM, the TGI (T-47D breast) was over 100 µM and the TGI (TK-10 renal) was over 100 µM. For the same molecule, the TGI (UACC-62 melanoma) was over 100 µM.

CCOC(=O)c1[nH]c(Br)c(-c2ccc(OC)c(OC)c2)c1Br showed a TGI (786-0 renal) of 11.7 µM, a GI50 (HCT-15 colon) of 0.04 µM and a TGI (HCT-15 colon) of 15.4 µM. For the same molecule, the GI50 (NCI-H522 lung) was 0.0328 µM, the TGI (NCI-H522 lung) was 0.349 µM and the GI50 (OVCAR-5 ovarian) was 20.3 µM. The TGI (OVCAR-5 ovarian) was 63.3 µM, the GI50 (SF-268 CNS) was 1.03 µM and the TGI (SF-268 CNS) was 35.7 µM. For the same molecule, the GI50 (SK-MEL-2 melanoma) was 0.0152 µM, the TGI (SK-MEL-2 melanoma) was 20.2 µM and the TGI (SK-MEL-28 melanoma) was 20.3 µM. The GI50 (SN12C renal) was 1.59 µM, the TGI (SN12C renal) was 49.4 µM and the TGI (SNB-75 CNS) was 32.8 µM. The TGI (SW-620 colon) was 38.1 µM, the TGI (T-47D breast) was 72.5 µM and the TGI (TK-10 renal) was 55.2 µM. It also gave a TGI (UACC-62 melanoma) of 22 µM.

Work on CC(=O)OC12C3C4C1C1C2C3C41OC(C)=O (stereo not drawn) yielded a TGI (786-0 renal) of over 100 µM, a TGI (HCT-15 colon) of over 100 µM and a TGI (NCI-H522 lung) of over 100 µM. The TGI (OVCAR-5 ovarian) was over 100 µM, the TGI (SF-268 CNS) was over 100 µM and the TGI (SK-MEL-2 melanoma) was over 100 µM. For the same molecule, the TGI (SK-MEL-28 melanoma) was over 100 µM, the TGI (SN12C renal) was over 100 µM and the TGI (SNB-75 CNS) was over 100 µM. For the same molecule, the TGI (SW-620 colon) was over 100 µM, the TGI (T-47D breast) was over 100 µM and the TGI (TK-10 renal) was over 100 µM. The TGI (UACC-62 melanoma) was over 100 µM.

CCOC(=O)c1[nH]c(-c2[nH]c(-c3[nH]c(-c4[nH]c(C(=O)OCC)c(C)c4C(=O)OCC)c(C(=O)OCC)c3C)c(C)c2C(=O)OCC)c(C(=O)OCC)c1C was tested, and the TGI (786-0 renal) was over 100 µM, the TGI (HCT-15 colon) was over 100 µM and the TGI (NCI-H522 lung) was over 100 µM. The TGI (OVCAR-5 ovarian) was over 100 µM, the TGI (SF-268 CNS) was over 100 µM and the TGI (SK-MEL-2 melanoma) was over 100 µM. It also gave a TGI (SK-MEL-28 melanoma) of over 100 µM, a TGI (SN12C renal) of over 100 µM and a TGI (SW-620 colon) of over 100 µM. It also gave a TGI (T-47D breast) of over 100 µM, a TGI (TK-10 renal) of over 100 µM and a TGI (UACC-62 melanoma) of over 100 µM.

C#C/C=C\CCCC/C=C\C#CC#CCCCC#CC#C[C@H](COS(=O)(=O)O)OS(=O)(=O)O was tested, and the TGI (786-0 renal) was over 100 µM, the TGI (HCT-15 colon) was over 100 µM and the TGI (NCI-H522 lung) was over 100 µM. For the same molecule, the TGI (OVCAR-5 ovarian) was over 100 µM, the TGI (SF-268 CNS) was over 100 µM and the TGI (SK-MEL-2 melanoma) was over 100 µM. The TGI (SK-MEL-28 melanoma) was over 100 µM, the TGI (SN12C renal) was over 100 µM and the TGI (SNB-75 CNS) was over 100 µM. For the same molecule, the TGI (SW-620 colon) was over 100 µM, the TGI (T-47D breast) was over 100 µM and the TGI (TK-10 renal) was over 100 µM. For the same molecule, the TGI (UACC-62 melanoma) was over 100 µM.

c1cc2c(cc1NC1=NCCO1)OCO2 was tested, and the TGI (786-0 renal) was over 100 µM, the TGI (HCT-15 colon) was over 100 µM and the TGI (NCI-H522 lung) was over 100 µM. For the same molecule, the TGI (OVCAR-5 ovarian) was over 100 µM, the TGI (SF-268 CNS) was over 100 µM and the TGI (SK-MEL-2 melanoma) was over 100 µM. The TGI (SK-MEL-28 melanoma) was over 100 µM, the TGI (SN12C renal) was over 100 µM and the TGI (SNB-75 CNS) was over 100 µM. It also gave a TGI (SW-620 colon) of over 100 µM, a TGI (T-47D breast) of over 100 µM and a TGI (TK-10 renal) of over 100 µM. The TGI (UACC-62 melanoma) was over 100 µM.
